Laboratory results as given in ChEMBL document CHEMBL1201862, “PubChem BioAssay data set” (2004).
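Five compound concentrations were applied to cells in 96-well plates for 48 hours; endpoints were derived by simple linear interpolation of the resulting dose-response curve. GI50 = concentration required for 50% inhibition of growth.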 Calls of active or inactive are those of the source. No stated cut-off is given here; in the data, active = GI50 up to about 1.1 µM and inactive = higher.

Key:
Assay in all cases: NCI anticancer screen, dose series, 48 h
ACHN = system: ACHN
SW-620 = system: SW-620
OVCAR-4 = system: OVCAR-4
NCI-H522 = system: NCI-H522
Malme-3M = system: Malme-3M
PC-3 = system: PC-3
NCI-H226 = system: NCI-H226
NCI/ADR-RES = system: NCI/ADR-RES
UACC-62 = system: UACC-62
MOLT-4 = system: MOLT-4
SK-MEL-2 = system: SK-MEL-2
SF-268 = system: SF-268
DU-145 = system: DU-145
SF-539 = system: SF-539
KM12 = system: KM12
UACC-257 = system: UACC-257
OVCAR-8 = system: OVCAR-8
Hs-578T = system: Hs-578T
HT-29 = system: HT-29

| SMILES | GI50 (ACHN) | GI50 (SW-620) | GI50 (OVCAR-4) | GI50 (NCI-H522) | GI50 (Malme-3M) | GI50 (PC-3) | GI50 (NCI-H226) | GI50 (NCI/ADR-RES) | GI50 (UACC-62) | GI50 (MOLT-4) | GI50 (SK-MEL-2) | GI50 (SF-268) | GI50 (DU-145) | GI50 (SF-539) | GI50 (KM12) | GI50 (UACC-257) | GI50 (OVCAR-8) | GI50 (Hs-578T) | GI50 (HT-29) |
| --- | --- | --- | --- | --- | --- | --- | --- | --- | --- | --- | --- | --- | --- | --- | --- | --- | --- | --- | --- |
| CCn1c(=N)sc2nc3ccccc3n2c1=O | > 100 µM (inactive) | > 100 µM (inactive) | > 100 µM (inactive) | > 100 µM (inactive) | > 100 µM (inactive) | > 100 µM (inactive) | > 100 µM (inactive) | > 100 µM (inactive) | > 100 µM (inactive) | > 100 µM (inactive) | > 100 µM (inactive) | > 100 µM (inactive) | > 100 µM (inactive) | > 100 µM (inactive) | > 100 µM (inactive) | > 100 µM (inactive) | > 100 µM (inactive) | > 100 µM (inactive) | > 100 µM (inactive) |
| C=C1CCCCCCCCC/C=C/1SCCCSC | > 100 µM (inactive) | > 100 µM (inactive) | > 100 µM (inactive) | > 100 µM (inactive) | > 100 µM (inactive) | > 100 µM (inactive) | > 100 µM (inactive) | > 100 µM (inactive) | > 100 µM (inactive) | > 100 µM (inactive) | > 100 µM (inactive) | > 100 µM (inactive) | > 100 µM (inactive) | > 100 µM (inactive) | > 100 µM (inactive) | > 100 µM (inactive) | > 100 µM (inactive) | > 100 µM (inactive) | > 100 µM (inactive) |
| O=C1COC(c2ccccc2O)=NN1CCCN1CCCC1 | > 100 µM (inactive) | > 100 µM (inactive) | > 100 µM (inactive) | > 100 µM (inactive) | > 100 µM (inactive) | > 100 µM (inactive) | > 100 µM (inactive) | > 100 µM (inactive) | > 100 µM (inactive) | > 100 µM (inactive) | > 100 µM (inactive) | > 100 µM (inactive) | > 100 µM (inactive) | > 100 µM (inactive) | > 100 µM (inactive) | > 100 µM (inactive) | > 100 µM (inactive) | > 100 µM (inactive) | > 100 µM (inactive) |
| FC(F)(F)C1(C(F)(F)F)O[Si]2(OC(C(F)(F)F)(C(F)(F)F)c3ccccc32)c2ccccc21 | 12 µM (inactive) | 17.1 µM (inactive) | 11.4 µM (inactive) | 7.53 µM (inactive) | 9.46 µM (inactive) | 6.27 µM (inactive) | 4.53 µM (inactive) | 6.58 µM (inactive) | 5.55 µM (inactive) | 14.4 µM (inactive) | 7.66 µM (inactive) | 15.6 µM (inactive) | 15.4 µM (inactive) | 10.2 µM (inactive) | 17.1 µM (inactive) | 18 µM (inactive) | 8.75 µM (inactive) | 11.9 µM (inactive) | 7.62 µM (inactive) |
| COC(=O)/C=C1\C(=O)N(C(C)=O)c2ccccc21 | 6.82 µM (inactive) | 13.7 µM (inactive) | 5.25 µM (inactive) | 3.35 µM (inactive) | 13.5 µM (inactive) | 13.8 µM (inactive) | 12.4 µM (inactive) | 13.9 µM (inactive) | 4.27 µM (inactive) | 5.78 µM (inactive) | 16.9 µM (inactive) | 16.5 µM (inactive) | 9.86 µM (inactive) | 4.79 µM (inactive) | 12.7 µM (inactive) | 7.38 µM (inactive) | 17.4 µM (inactive) | 4.17 µM (inactive) | 5.28 µM (inactive) |
| COc1ccc(C(=C2C(=O)N(c3ccccc3)C(=O)C2=C(C)C)c2ccc(OC)cc2)cc1 | 4.69 µM (inactive) | 3.19 µM (inactive) | 3.23 µM (inactive) | 1.5 µM (inactive) | 6.75 µM (inactive) | 4.33 µM (inactive) | 4.56 µM (inactive) | 2.57 µM (inactive) | 3.41 µM (inactive) | 2.54 µM (inactive) | 3.97 µM (inactive) | 9.95 µM (inactive) | 6.14 µM (inactive) | 2.99 µM (inactive) | 3.53 µM (inactive) | 5.05 µM (inactive) | 8.41 µM (inactive) | 3.69 µM (inactive) | 2.43 µM (inactive) |
| CC(C)(C)[C@@H]1NC(=O)CN1C(=O)OCc1ccccc1 | > 100 µM (inactive) | > 100 µM (inactive) | > 100 µM (inactive) | > 100 µM (inactive) | > 100 µM (inactive) | > 100 µM (inactive) | > 100 µM (inactive) | > 100 µM (inactive) | > 100 µM (inactive) | > 100 µM (inactive) | > 100 µM (inactive) | > 100 µM (inactive) | > 100 µM (inactive) | > 100 µM (inactive) | > 100 µM (inactive) | > 100 µM (inactive) | > 100 µM (inactive) | 0.661 µM (active) | > 100 µM (inactive) |
| CC(NNC(=O)c1ccncc1)c1ccc(Cl)cc1Cl (stereo not given) | > 100 µM (inactive) | > 100 µM (inactive) | > 100 µM (inactive) | > 100 µM (inactive) | > 100 µM (inactive) | 59.8 µM (inactive) | > 100 µM (inactive) | 93.8 µM (inactive) | > 100 µM (inactive) | 83.8 µM (inactive) | > 100 µM (inactive) | > 100 µM (inactive) | > 100 µM (inactive) | > 100 µM (inactive) | 49.3 µM (inactive) | > 100 µM (inactive) | > 100 µM (inactive) | > 100 µM (inactive) | > 100 µM (inactive) |
| CC(=O)N1C(c2[nH]c3ccccc3c2Cc2ccccc2)CCN1c1ccccc1 (stereo not given) | 3.04 µM (inactive) | > 10 µM (inactive) | > 10 µM (inactive) | 8.47 µM (inactive) | > 10 µM (inactive) | 3.24 µM (inactive) | > 10 µM (inactive) | 9.02 µM (inactive) |  | 4.4 µM (inactive) | > 10 µM (inactive) | 4.72 µM (inactive) | > 10 µM (inactive) | > 10 µM (inactive) |  | > 10 µM (inactive) | > 10 µM (inactive) | 9.31 µM (inactive) | > 10 µM (inactive) |
| C=CCCC(=O)N1CCC(C(=O)OCC)C1=O (stereo not given) | > 100 µM (inactive) | > 100 µM (inactive) | > 100 µM (inactive) | > 100 µM (inactive) | > 100 µM (inactive) | > 100 µM (inactive) | 90.8 µM (inactive) | > 100 µM (inactive) | > 100 µM (inactive) | > 100 µM (inactive) | > 100 µM (inactive) | > 100 µM (inactive) | > 100 µM (inactive) | > 100 µM (inactive) | > 100 µM (inactive) | > 100 µM (inactive) | > 100 µM (inactive) | > 100 µM (inactive) |  |
| CC(C)C(C=O)C(O)(C(F)(F)F)C(F)(F)F (stereo not given) | > 100 µM (inactive) | > 100 µM (inactive) | > 100 µM (inactive) | > 100 µM (inactive) | > 100 µM (inactive) | > 100 µM (inactive) | > 100 µM (inactive) | > 100 µM (inactive) | > 100 µM (inactive) | > 100 µM (inactive) | > 100 µM (inactive) |  | > 100 µM (inactive) | > 100 µM (inactive) | > 100 µM (inactive) | > 100 µM (inactive) | > 100 µM (inactive) | 59.3 µM (inactive) | > 100 µM (inactive) |
